According to BindingDB's records for PubMed 7523657 (Eli Lilly, 1994):

Columns and labels:
Histamine H1 receptor = Histamine H1 receptor (Rattus norvegicus, UniProt P31390)
[1] = target: Gamma-aminobutyric acid receptor subunit alpha-1 (Rattus norvegicus, UniProt P62813)
[2] = target: T1, Alpha-2C adrenergic receptor (Rattus norvegicus, UniProt P22086)
T1 sequence (P22086 whole entry): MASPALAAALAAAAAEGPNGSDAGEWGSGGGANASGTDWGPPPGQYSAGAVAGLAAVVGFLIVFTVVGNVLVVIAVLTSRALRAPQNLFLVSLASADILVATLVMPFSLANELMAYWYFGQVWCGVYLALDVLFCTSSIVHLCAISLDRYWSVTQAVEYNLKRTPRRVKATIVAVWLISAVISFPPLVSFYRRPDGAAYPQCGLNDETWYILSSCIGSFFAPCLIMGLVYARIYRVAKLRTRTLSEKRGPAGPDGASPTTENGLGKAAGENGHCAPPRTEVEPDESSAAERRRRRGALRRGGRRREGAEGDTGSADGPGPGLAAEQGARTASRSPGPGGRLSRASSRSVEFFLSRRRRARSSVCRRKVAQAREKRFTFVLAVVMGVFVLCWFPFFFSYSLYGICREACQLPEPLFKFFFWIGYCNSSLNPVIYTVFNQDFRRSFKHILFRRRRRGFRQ

[3] = target: 5-hydroxytryptamine receptor 1D (Rattus norvegicus, UniProt P28565)
5-hydroxytryptamine receptor 1D, sequence (P28565 whole entry): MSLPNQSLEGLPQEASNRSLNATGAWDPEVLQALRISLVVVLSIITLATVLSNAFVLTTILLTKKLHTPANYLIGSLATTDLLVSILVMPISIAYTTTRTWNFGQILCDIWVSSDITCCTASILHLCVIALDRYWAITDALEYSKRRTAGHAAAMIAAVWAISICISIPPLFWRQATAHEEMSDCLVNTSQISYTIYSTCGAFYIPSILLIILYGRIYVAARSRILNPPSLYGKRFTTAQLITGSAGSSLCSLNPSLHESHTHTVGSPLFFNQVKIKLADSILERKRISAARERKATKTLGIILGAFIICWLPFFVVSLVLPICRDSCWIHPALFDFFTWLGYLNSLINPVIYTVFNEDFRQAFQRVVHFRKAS

D(2) dopamine receptor = D(2) dopamine receptor (Rattus norvegicus, UniProt P61169)
D(2) dopamine receptor, sequence (P61169 whole entry): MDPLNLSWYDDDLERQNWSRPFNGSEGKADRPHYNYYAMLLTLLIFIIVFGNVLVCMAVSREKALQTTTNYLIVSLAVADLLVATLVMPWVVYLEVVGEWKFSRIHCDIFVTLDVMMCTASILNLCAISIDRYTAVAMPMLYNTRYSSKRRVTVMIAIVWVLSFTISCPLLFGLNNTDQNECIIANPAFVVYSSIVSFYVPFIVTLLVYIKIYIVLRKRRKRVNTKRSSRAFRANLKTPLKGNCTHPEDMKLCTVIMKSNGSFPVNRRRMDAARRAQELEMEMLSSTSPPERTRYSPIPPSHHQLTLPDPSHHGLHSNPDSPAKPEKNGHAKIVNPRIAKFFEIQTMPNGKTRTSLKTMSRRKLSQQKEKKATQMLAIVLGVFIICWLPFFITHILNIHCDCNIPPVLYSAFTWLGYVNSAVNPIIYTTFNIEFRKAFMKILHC

[4] = target: T2, Muscarinic acetylcholine receptor M2 (Rattus norvegicus, UniProt P10980)
T2 sequence (P10980 whole entry): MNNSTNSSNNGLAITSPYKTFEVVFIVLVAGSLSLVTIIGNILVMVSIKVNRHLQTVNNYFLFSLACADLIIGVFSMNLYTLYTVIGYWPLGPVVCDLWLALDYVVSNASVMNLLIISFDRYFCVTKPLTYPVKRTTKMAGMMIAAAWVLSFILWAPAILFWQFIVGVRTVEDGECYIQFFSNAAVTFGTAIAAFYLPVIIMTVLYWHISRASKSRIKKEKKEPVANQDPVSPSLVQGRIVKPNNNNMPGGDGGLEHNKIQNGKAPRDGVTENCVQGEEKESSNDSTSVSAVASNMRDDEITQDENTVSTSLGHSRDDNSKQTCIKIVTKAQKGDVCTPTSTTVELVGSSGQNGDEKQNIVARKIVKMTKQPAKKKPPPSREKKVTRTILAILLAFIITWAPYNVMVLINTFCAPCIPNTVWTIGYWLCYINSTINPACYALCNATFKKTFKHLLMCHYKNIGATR

[5] = target: T3, Alpha-1A adrenergic receptor (Rattus norvegicus, UniProt P43140)
T3 sequence (P43140 whole entry): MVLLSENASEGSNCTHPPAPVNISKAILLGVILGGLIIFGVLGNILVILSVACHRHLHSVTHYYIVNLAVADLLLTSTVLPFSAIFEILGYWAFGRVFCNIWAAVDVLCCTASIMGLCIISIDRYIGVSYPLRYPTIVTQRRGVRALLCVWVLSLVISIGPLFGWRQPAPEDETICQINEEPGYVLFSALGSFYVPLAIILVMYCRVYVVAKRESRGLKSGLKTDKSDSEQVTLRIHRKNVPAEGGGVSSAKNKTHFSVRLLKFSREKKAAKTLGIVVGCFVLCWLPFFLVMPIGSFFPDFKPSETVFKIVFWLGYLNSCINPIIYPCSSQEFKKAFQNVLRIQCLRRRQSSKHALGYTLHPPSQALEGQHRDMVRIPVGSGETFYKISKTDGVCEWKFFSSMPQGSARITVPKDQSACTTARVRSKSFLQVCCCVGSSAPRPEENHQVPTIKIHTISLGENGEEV

[6] = target: Beta-2 adrenergic receptor (Rattus norvegicus, UniProt P10608)
Beta-2 adrenergic receptor, sequence (P10608 whole entry): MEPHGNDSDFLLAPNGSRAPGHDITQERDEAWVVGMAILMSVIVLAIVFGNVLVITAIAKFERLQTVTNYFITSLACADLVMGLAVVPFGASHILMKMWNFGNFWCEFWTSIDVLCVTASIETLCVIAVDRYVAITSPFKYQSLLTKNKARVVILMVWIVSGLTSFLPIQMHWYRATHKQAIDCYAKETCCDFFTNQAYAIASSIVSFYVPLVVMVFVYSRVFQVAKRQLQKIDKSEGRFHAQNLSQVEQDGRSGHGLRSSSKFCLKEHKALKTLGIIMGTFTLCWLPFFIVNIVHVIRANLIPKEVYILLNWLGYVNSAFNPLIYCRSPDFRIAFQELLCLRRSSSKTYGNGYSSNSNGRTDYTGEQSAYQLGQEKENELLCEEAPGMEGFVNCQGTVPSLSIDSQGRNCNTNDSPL

[7] = target: 5-hydroxytryptamine receptor 1B (Rattus norvegicus, UniProt P28564)
5-hydroxytryptamine receptor 1B, sequence (P28564 whole entry): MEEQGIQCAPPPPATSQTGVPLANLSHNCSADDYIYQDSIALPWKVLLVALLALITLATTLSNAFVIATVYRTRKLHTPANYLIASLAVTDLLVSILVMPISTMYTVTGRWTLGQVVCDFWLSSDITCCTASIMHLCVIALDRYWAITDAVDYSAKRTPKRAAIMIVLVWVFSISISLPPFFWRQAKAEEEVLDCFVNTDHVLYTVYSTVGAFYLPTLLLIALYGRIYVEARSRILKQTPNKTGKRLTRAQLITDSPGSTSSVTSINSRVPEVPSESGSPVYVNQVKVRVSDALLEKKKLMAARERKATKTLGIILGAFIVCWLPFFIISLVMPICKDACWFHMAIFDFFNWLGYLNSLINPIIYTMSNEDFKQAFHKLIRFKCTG

D(1A) dopamine receptor = D(1A) dopamine receptor (Rattus norvegicus, UniProt P18901)
D(1A) dopamine receptor, sequence (P18901 whole entry): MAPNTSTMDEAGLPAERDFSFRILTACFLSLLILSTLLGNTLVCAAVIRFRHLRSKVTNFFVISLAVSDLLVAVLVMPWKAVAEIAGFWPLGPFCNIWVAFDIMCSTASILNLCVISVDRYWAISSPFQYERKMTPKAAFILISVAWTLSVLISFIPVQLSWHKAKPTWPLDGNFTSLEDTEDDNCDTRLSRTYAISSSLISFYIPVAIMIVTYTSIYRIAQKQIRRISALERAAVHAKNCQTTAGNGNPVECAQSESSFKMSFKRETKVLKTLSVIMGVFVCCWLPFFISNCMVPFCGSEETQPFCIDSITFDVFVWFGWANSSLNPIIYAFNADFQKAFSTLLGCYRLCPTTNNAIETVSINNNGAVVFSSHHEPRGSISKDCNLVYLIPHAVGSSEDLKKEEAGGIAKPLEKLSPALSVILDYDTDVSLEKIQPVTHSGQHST

[8] = target: 5-hydroxytryptamine receptor 2A (Rattus norvegicus, UniProt P14842)
5-hydroxytryptamine receptor 2A, sequence (P14842 whole entry): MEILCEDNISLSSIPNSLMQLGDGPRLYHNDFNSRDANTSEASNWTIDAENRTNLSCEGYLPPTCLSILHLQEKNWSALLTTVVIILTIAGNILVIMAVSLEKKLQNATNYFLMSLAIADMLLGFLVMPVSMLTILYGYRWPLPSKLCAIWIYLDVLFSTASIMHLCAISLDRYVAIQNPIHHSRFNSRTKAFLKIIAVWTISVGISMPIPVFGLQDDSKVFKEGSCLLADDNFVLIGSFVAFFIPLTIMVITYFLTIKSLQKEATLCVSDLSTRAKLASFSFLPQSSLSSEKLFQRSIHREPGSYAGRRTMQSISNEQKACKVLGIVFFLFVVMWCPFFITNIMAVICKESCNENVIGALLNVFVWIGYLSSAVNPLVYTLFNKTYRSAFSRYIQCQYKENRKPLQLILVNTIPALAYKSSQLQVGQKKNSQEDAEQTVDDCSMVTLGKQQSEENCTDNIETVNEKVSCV

[9] = target: T4, 5-hydroxytryptamine receptor 3A (Rattus norvegicus, UniProt P35563)
T4 sequence (P35563 whole entry): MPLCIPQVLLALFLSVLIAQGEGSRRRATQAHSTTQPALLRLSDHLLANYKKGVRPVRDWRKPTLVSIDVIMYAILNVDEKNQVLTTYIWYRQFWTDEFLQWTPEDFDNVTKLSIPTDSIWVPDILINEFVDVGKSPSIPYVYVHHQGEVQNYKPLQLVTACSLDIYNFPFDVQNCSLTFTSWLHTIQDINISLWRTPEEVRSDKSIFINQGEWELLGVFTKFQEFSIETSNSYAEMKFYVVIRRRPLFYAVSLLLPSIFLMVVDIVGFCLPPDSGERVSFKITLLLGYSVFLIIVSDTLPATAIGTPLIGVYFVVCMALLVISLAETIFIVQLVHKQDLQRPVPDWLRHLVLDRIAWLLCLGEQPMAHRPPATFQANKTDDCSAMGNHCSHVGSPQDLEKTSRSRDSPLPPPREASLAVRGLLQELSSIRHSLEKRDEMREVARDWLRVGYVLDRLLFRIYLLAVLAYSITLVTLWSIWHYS

[10] = target: T5, 5-hydroxytryptamine receptor 2C (Rattus norvegicus, UniProt P08909)
T5 sequence (P08909 whole entry): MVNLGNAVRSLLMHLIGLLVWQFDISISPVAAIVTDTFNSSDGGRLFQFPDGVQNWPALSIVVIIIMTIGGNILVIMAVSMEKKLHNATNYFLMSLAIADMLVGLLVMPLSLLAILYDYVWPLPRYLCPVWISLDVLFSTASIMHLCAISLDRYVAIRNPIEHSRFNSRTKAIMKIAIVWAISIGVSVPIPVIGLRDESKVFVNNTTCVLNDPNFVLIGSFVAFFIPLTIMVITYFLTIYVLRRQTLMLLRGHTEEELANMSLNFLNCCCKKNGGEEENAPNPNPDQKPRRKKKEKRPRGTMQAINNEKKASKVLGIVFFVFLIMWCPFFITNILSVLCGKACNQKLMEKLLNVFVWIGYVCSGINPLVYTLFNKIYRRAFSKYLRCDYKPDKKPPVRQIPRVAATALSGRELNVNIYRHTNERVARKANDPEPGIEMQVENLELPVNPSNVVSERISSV

Measured: Ki

Histamine H1 receptor, sequence (P31390 whole entry): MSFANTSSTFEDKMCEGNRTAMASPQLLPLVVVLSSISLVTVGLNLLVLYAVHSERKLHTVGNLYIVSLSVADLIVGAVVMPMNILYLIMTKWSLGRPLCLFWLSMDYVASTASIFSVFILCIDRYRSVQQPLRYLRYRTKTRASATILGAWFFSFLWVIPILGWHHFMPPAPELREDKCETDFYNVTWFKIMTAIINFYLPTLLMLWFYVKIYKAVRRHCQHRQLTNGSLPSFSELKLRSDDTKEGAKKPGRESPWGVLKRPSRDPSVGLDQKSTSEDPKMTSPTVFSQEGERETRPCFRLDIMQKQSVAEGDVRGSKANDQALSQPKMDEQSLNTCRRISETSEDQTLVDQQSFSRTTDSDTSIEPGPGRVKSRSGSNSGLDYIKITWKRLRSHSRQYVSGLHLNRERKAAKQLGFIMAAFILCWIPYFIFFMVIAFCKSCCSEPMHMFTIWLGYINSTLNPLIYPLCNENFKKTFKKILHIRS
Gamma-aminobutyric acid receptor subunit alpha-1, sequence (P62813 whole entry): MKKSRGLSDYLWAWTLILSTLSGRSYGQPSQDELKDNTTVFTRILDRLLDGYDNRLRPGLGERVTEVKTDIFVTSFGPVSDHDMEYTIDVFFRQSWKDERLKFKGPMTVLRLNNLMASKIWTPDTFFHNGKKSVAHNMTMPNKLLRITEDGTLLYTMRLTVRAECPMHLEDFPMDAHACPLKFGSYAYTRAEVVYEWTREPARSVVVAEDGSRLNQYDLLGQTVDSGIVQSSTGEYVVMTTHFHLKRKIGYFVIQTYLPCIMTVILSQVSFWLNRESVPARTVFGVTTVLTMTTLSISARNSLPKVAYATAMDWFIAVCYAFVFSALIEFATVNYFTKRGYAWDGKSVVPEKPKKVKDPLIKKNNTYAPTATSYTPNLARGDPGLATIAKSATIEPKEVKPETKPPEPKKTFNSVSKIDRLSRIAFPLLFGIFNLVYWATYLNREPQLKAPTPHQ

CCCN(CCC)C1Cc2c[nH]c3ccc(C(C)=O)c(c23)C1 (stereo not drawn) [LY-293384]
66.9 nM: [3]
1000 nM: all other assays above
